# Test system: HT29 human colorectal adenocarcinoma cell line
# Assay: cell proliferation assay (Cell Titer-Glo luminescent cell viability assay)
# Type: cell-based
# Settings: HT-29, cell proliferative assay, HT29 cells, 72 hr treatment, values given as ranges, read-out: pIC50 (converted)
# How it was run: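 Cells grown in DMEM with 10% FBS and exposed to compounds for 72 h. Viability read by CellTiter-Glo luminescence, expressed as percentage of DMSO-treated cells.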
row,SMILES,IC50 [nM]
1,"COc1cc(C(=O)NN2CCN(C)CC2)ccc1Nc1ncc2c(n1)N(C1CCCC1)CC1(CCC1)C(=O)N2C [Compound 180, 4-(9′-cyclopentyl-5′-methyl-6′-oxo-5′,6′,8′,9′-tetrahydrospiro[cyclobutane-1,7′-pyrimido[4,5-b][1,4]diazepine]-2′-ylamino)-3-methoxy-N-(4-methylpiperazin-1-yl)benzamide]",< 1
2,"COc1cc(C(=O)N[C@@H]2CCCNC2)ccc1Nc1ncc2c(n1)N(C1CCCC1)CC1(CCC1)C(=O)N2C [Compound 181, (R)-4-(9′-cyclopentyl-5′-methyl-6′-oxo-5′,6′,8′,9′-tetrahydrospiro[cyclobutane-1,7′-pyrimido[4,5-b][1,4]diazepine]-2′-ylamino)-3-methoxy-N-(piperidin-3-yl)benzamide]",3.16 to 10
3,"C=CCC1CN(C2CCCCC2)c2nc(Nc3ccc(C(=O)N[C@@H]4CCCNC4)cc3OC)ncc2N(C)C1=O (stereo partly drawn) [Compound 191, 4-(7-allyl-9-cyclohexyl-5-methyl-6-oxo-6,7,8,9-tetrahydro-5H-pyrimido[4,5-b][1,4]diazepin-2-ylamino)-3-methoxy-N-((R)-piperidin-3-yl)benzamide]",3.16 to 10
4,"C=CCC1CN(C2CCCCC2)c2nc(Nc3ccc(C(=O)N[C@H]4CCCNC4)cc3OC)ncc2N(C)C1=O (stereo partly drawn) [Compound 192, 4-(7-allyl-9-cyclohexyl-5-methyl-6-oxo-6,7,8,9-tetrahydro-5H-pyrimido[4,5-b][1,4]diazepin-2-ylamino)-3-methoxy-N-((S)-piperidin-3-yl)benzamide]",> 10
5,"C=CC[C@H]1CN(C2CCCC2)c2nc(Nc3ccc(C(=O)NC4CN(C)C4)cc3OC)ncc2N(C)C1=O [Compound 196, (S)-4-(7-allyl-9-cyclopentyl-5-methyl-6-oxo-6,7,8,9-tetrahydro-5H-pyrimido[4,5-b][1,4]diazepin-2-ylamino)-3-methoxy-N-(1-methylazetidin-3-yl)benzamide]",< 1
6,"C=CC[C@H]1CN(C2CCCC2)c2nc(Nc3ccc(C(=O)N[C@H]4CC[C@H](O)CC4)cc3OC)ncc2N(C)C1=O [Compound 197, 4-((S)-7-allyl-9-cyclopentyl-5-methyl-6-oxo-6,7,8,9-tetrahydro-5H-pyrimido[4,5-b][1,4]diazepin-2-ylamino)-N-((1R,4R)-4-hydroxycyclohexyl)-3-methoxybenzamide]",< 1
7,"C=CC[C@H]1CN(C2CCCC2)c2nc(Nc3ccc(C(=O)N[C@H]4CCCN(C)C4)cc3OC)ncc2N(C)C1=O [Compound 198, 4-((S)-7-allyl-9-cyclopentyl-5-methyl-6-oxo-6,7,8,9-tetrahydro-5H-pyrimido[4,5-b][1,4]diazepin-2-ylamino)-3-methoxy-N-((S)-1-methylpiperidin-3-yl)benzamide]",< 1
8,"C=CC[C@H]1CN(C2CCCC2)c2nc(Nc3ccc(C(=O)N[C@@H]4CCCNC4)cc3OC)ncc2N(C)C1=O [Compound 200, 4-((S)-7-allyl-9-cyclopentyl-5-methyl-6-oxo-6,7,8,9-tetrahydro-5H-pyrimido[4,5-b][1,4]diazepin-2-ylamino)-3-methoxy-N-((R)-piperidin-3-yl)benzamide]",1 to 2.51
9,"C=CC[C@H]1CN(C2CCCC2)c2nc(Nc3ccc(C(=O)N[C@H]4CCCNC4)cc3OC)ncc2N(C)C1=O [Compound 201, 4-((S)-7-allyl-9-cyclopentyl-5-methyl-6-oxo-6,7,8,9-tetrahydro-5H-pyrimido[4,5-b][1,4]diazepin-2-ylamino)-3-methoxy-N-((S)-piperidin-3-yl)benzamide]",1 to 2.51
10,"C=CC[C@H]1CN(C2CCCC2)c2nc(Nc3ccc(C(=O)N[C@@H]4CCNC4)cc3OC)ncc2N(C)C1=O [Compound 202, 4-((S)-7-allyl-9-cyclopentyl-5-methyl-6-oxo-6,7,8,9-tetrahydro-5H-pyrimido[4,5-b][1,4]diazepin-2-ylamino)-3-methoxy-N-((R)-pyrrolidin-3-yl)benzamide]",1 to 2.51
11,"C=CC[C@H]1CN(C2CCCC2)c2nc(Nc3ccc(C(=O)N[C@H]4CCNC4)cc3OC)ncc2N(C)C1=O [Compound 203, 4-((S)-7-allyl-9-cyclopentyl-5-methyl-6-oxo-6,7,8,9-tetrahydro-5H-pyrimido[4,5-b][1,4]diazepin-2-ylamino)-3-methoxy-N-((S)-pyrrolidin-3-yl)benzamide]",1 to 2.51
12,"C=CC[C@H]1CN(C2CCCC2)c2nc(Nc3ccc(C(=O)N[C@@H]4CCN(C)C4)cc3OC)ncc2N(C)C1=O [Compound 204, 4-((S)-7-allyl-9-cyclopentyl-5-methyl-6-oxo-6,7,8,9-tetrahydro-5H-pyrimido[4,5-b][1,4]diazepin-2-ylamino)-3-methoxy-N-((R)-1-methylpyrrolidin-3-yl)benzamide]",1 to 2.51
13,"C=CC[C@H]1CN(C2CCCC2)c2nc(Nc3ccc(C(=O)N[C@H]4CCN(C)C4)cc3OC)ncc2N(C)C1=O [Compound 205, 4-((S)-7-allyl-9-cyclopentyl-5-methyl-6-oxo-6,7,8,9-tetrahydro-5H-pyrimido[4,5-b][1,4]diazepin-2-ylamino)-3-methoxy-N-((S)-1-methylpyrrolidin-3-yl)benzamide]",< 1
14,"C=CC[C@H]1CN(C2CCCC2)c2nc(Nc3ccc(C(=O)NN4CCN(C)CC4)cc3OC)ncc2N(C)C1=O [Compound 206, (S)-4-(7-allyl-9-cyclopentyl-5-methyl-6-oxo-6,7,8,9-tetrahydro-5H-pyrimido[4,5-b][1,4]diazepin-2-ylamino)-3-methoxy-N-(4-methylpiperazin-1-yl)benzamide]",< 1
15,C#CCC1CN(C2CCCC2)c2nc(Nc3ccc(C(=O)NC4CCN(C)CC4)cc3OC)ncc2N(C)C1=O (stereo not drawn) [Compound 209],1 to 2.51
16,"C/C=C\CC1CN(C2CCCC2)c2nc(Nc3ccc(C(=O)NC4CCN(C)CC4)cc3OC)ncc2N(C)C1=O (stereo not drawn) [Compound 218, (Z)-4-(7-(but-2-enyl)-9-cyclopentyl-5-methyl-6-oxo-6,7,8,9-tetrahydro-5H-pyrimido[4,5-b][1,4]diazepin-2-ylamino)-3-methoxy-N-(1-methylpiperidin-4-yl)benzamide]",< 1
17,"C=CCC1(C)CN(C2CCCC2)c2nc(Nc3ccc(C(=O)NC4CCN(C)CC4)cc3OC)ncc2N(C)C1=O (stereo not drawn) [Compound 221, 4-(7-allyl-9-cyclopentyl-5,7-dimethyl-6-oxo-6,7,8,9-tetrahydro-5H-pyrimido[4,5-b][1,4]diazepin-2-ylamino)-3-methoxy-N-(1-methylpiperidin-4-yl)benzamide]",1 to 2.51
18,"C=CCC1CN(C2CCCCC2)c2nc(Nc3ccc(C(=O)NC4CN(C)C4)cc3OC)ncc2N(C)C1=O (stereo not drawn) [Compound 225, 4-(7-allyl-9-cyclohexyl-5-methyl-6-oxo-6,7,8,9-tetrahydro-5H-pyrimido[4,5-b][1,4]diazepin-2-ylamino)-3-methoxy-N-(1-methylazetidin-3-yl)benzamide]",3.16 to 10
19,"C=CCC1CN(C2CCCCC2)c2nc(Nc3ccc(C(=O)N[C@H]4CCCN(C)C4)cc3OC)ncc2N(C)C1=O (stereo partly drawn) [Compound 227, 4-(7-allyl-9-cyclohexyl-5-methyl-6-oxo-6,7,8,9-tetrahydro-5H-pyrimido[4,5-b][1,4]diazepin-2-ylamino)-3-methoxy-N-((S)-1-methylpiperidin-3-yl)benzamide]",> 10

# Second part, the compound after the results:
row,IC50 [nM],SMILES
1,1 to 2.51,"COc1cc(C(=O)N[C@H]2CCCNC2)ccc1Nc1ncc2c(n1)N(C1CCCC1)CC1(CCC1)C(=O)N2C [Compound 182, (S)-4-(9′-cyclopentyl-5′-methyl-6′-oxo-5′,6′,8′,9′-tetrahydrospiro[cyclobutane-1,7′-pyrimido[4,5-b][1,4]diazepine]-2′-ylamino)-3-methoxy-N-(piperidin-3-yl)benzamide]"
2,< 1,"C=CCC1CN(C2CCCCC2)c2nc(Nc3ccc(C(=O)N[C@H]4CCNC4)cc3OC)ncc2N(C)C1=O (stereo partly drawn) [Compound 194, 4-(7-allyl-9-cyclohexyl-5-methyl-6-oxo-6,7,8,9-tetrahydro-5H-pyrimido[4,5-b][1,4]diazepin-2-ylamino)-3-methoxy-N-((S)-pyrrolidin-3-yl)benzamide]"
3,3.16 to 10,"C=CC[C@H]1CN(C2CCCC2)c2nc(Nc3ccc(C(=O)NC4CCNCC4)cc3OC)ncc2N(C)C1=O [Compound 207, (S)-4-(7-allyl-9-cyclopentyl-5-methyl-6-oxo-6,7,8,9-tetrahydro-5H-pyrimido[4,5-b][1,4]diazepin-2-ylamino)-3-methoxy-N-(piperidin-4-yl)benzamide]"
4,1 to 2.51,"C#CCC1CN(C2CCCC2)c2nc(Nc3ccc(C(=O)NC4CCNCC4)cc3OC)ncc2N(C)C1=O (stereo not drawn) [Compound 211, 4-(9-cyclopentyl-5-methyl-6-oxo-7-(prop-2-ynyl)-6,7,8,9-tetrahydro-5H-pyrimido[4,5-b][1,4]diazepin-2-ylamino)-3-methoxy-N-(piperidin-4-yl)benzamide]"
5,1 to 2.51,"CC#CC[C@@H]1CN(C2CCCC2)c2nc(Nc3ccc(C(=O)NC4CCN(C)CC4)cc3OC)ncc2N(C)C1=O [Compound 216, (R)-4-(7-(but-2-ynyl)-9-cyclopentyl-5-methyl-6-oxo-6,7,8,9-tetrahydro-5H-pyrimido[4,5-b][1,4]diazepin-2-ylamino)-3-methoxy-N-(1-methylpiperidin-4-yl)benzamide]"
6,3.16 to 10,"CCC#CCC1CN(C2CCCC2)c2nc(Nc3ccc(C(=O)NC4CCN(C)CC4)cc3OC)ncc2N(C)C1=O (stereo not drawn) [Compound 219, 4-(9-cyclopentyl-5-methyl-6-oxo-7-(pent-2-ynyl)-6,7,8,9-tetrahydro-5H-pyrimido[4,5-b][1,4]diazepin-2-ylamino)-3-methoxy-N-(1-methylpiperidin-4-yl)benzamide]"
7,3.16 to 10,"C/C=C/CC1CN(C2CCCC2)c2nc(Nc3ccc(C(=O)NC4CCN(C)CC4)cc3OC)ncc2N(C)C1=O (stereo not drawn) [Compound 220, (E)-4-(7-(but-2-enyl)-9-cyclopentyl-5-methyl-6-oxo-6,7,8,9-tetrahydro-5H-pyrimido[4,5-b][1,4]diazepin-2-ylamino)-3-methoxy-N-(1-methylpiperidin-4-yl)benzamide]"
8,1 to 2.51,"C=CCC1CN(C2CCCCC2)c2nc(Nc3ccc(C(=O)NN4CCN(C)CC4)cc3OC)ncc2N(C)C1=O (stereo not drawn) [Compound 226, 4-(7-allyl-9-cyclohexyl-5-methyl-6-oxo-6,7,8,9-tetrahydro-5H-pyrimido[4,5-b][1,4]diazepin-2-ylamino)-3-methoxy-N-(4-methylpiperazin-1-yl)benzamide]"
